Common to all, as to experiment: NCI tumour cell line growth inhibition, 48 h
The subject of assay [1] is SW-620 colon.
Assay [2] relates to HS 578T breast.
Assay [3] has as its system NCI/ADR-RES ovarian.
Assay [4] relates to SR leukemia.
Assay [5] concerns MCF7 breast.
Assay [6] deals with 786-0 renal.
The test system of assay [7] is TK-10 renal.
Assay [8] relates to MOLT-4 leukemia.
The test system of assay [9] is CCRF-CEM leukemia.
The subject of assay [10] is NCI-H23 lung.
For assay [11], the system named is SK-MEL-2 melanoma.

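Tested at 5 concentrations; 48 h exposure; 96-well plates; endpoints linearly interpolated, else capped at highest concentration. TGI denotes the concentration required for complete inhibition of growth.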

For `COC(=O)c1ccccc1C1CN=NC12Cc1cccc(C)c1C2=O` (stereo not given), the TGI was over 100 µM in assay [1]; over 100 µM in assay [2]; 45.7 µM in assay [3]; over 100 µM in assay [4]; 91.9 µM in [5]; over 100 µM in assay [6]. Moreover, the TGI in [7], in assay [8], in [9], in [10] and in assay [11] was over 100 µM in each case.
In the case of `CSc1nc2c(=O)n(-c3ccccc3)c(=S)n(-c3ccccc3)c2s1`, the TGI in [1] was over 100 µM; in assay [2], 94.7 µM; in assay [3], over 100 µM; in assay [4], over 100 µM; in [5], over 100 µM; in assay [6], over 100 µM. For the same compound, the TGI in [7], in assay [8], in assay [9], in assay [10] and in assay [11] was over 100 µM each time.
For the compound `Nc1ccc(Oc2ccc(C34CC5CC6C3CC3CC4C(C5)C6(c4ccc(Oc5ccc(N)c(O)c5)cc4)C3)cc2)cc1O`, the TGI was over 54.8 µM in [1]; 80.5 µM in assay [2]; over 92.8 µM in assay [3]; 8.49 µM in assay [4]; over 42.3 µM in assay [5]; 14.9 µM in [6]. Moreover, the TGI came out at 19 µM in [7]; 12.9 µM in assay [8]; 40.3 µM in [9]; 31.2 µM in assay [10]; 39 µM in assay [11].
With `CC(=O)NC(Cc1ccc(OP(=O)(OCc2ccc([N+](=O)[O-])o2)N(C)CCCCCl)cc1)C(=O)NC(C)c1ccc(OCC2CCCCC2)c(C(N)=O)c1` (stereo not given), the TGI was 14.2 µM in assay [1]; 4.65 µM in assay [2]; over 100 µM in [3]; 6.42 µM in assay [4]; 5.23 µM in [5]; 12.4 µM in assay [6]. Also, the TGI in assay [7] was 32 µM; in assay [8], 26.3 µM; in assay [9] it was 10.1 µM; in assay [10] it was 6.3 µM; in assay [11], 9.2 µM.
Regarding `CC12CCC(C(Nc3ccccn3)C1=O)C2(C)C` (stereo not given), the TGI in [1], in [2], in [3], in [4], in assay [5] and in [6] was over 100 µM each time. For the same compound, the TGI in [7], in assay [8], in assay [9], in assay [10] and in assay [11] was over 100 µM each time.
As for `Oc1cccc(-c2cn3cc(C(F)(F)F)ccc3n2)c1`, the TGI in [1] was over 100 µM; in assay [2] it was over 100 µM; in assay [3] it was 78.1 µM; in assay [4] it was over 100 µM; in assay [5] it was over 100 µM; in [6], over 100 µM. In addition, the TGI in assay [7] is 73.3 µM; in assay [8], 40.1 µM; in assay [9] it was 77.5 µM; in assay [10], over 100 µM; in assay [11], over 100 µM.
`COc1cc2c(cc1OC)-c1cc3cc(OC)c(OC)cc3c(=O)n1CC2`: the TGI was over 100 µM in assay [1]; over 57.5 µM in [2]; over 80.1 µM in assay [3]; over 100 µM in assay [4]; over 100 µM in [5]; over 100 µM in assay [6]. The TGI in assay [7] is over 100 µM; in assay [8], over 100 µM; in assay [9], over 100 µM; in [10], over 100 µM; in assay [11], over 72.9 µM.
`CC(C)(C)[C@H]1CCC2(OCCO2)[C@](O)(CCCO)C1`: the TGI in [1], in assay [2], in [3], in [4], in assay [5] and in assay [6] was over 100 µM each time. Besides, the TGI in [7], in [8], in assay [9], in assay [10] and in [11] was over 100 µM each time.
In the case of `C[C@]1(O)O[C@@H]2OCC[C@@H]2C2=C1C(=O)c1ccccc1C2=O`, the TGI in [1] is 39.8 µM; in assay [2] it was 82.4 µM; in assay [3], 45.8 µM; in assay [4], 45.5 µM; in assay [5], 23.3 µM; in assay [6], 28.8 µM. Moreover, the TGI in [7] is 35.5 µM; in assay [8] it was over 100 µM; in assay [9] it was 51.2 µM; in assay [10] it was 31.6 µM; in assay [11], 32 µM.
As for `COc1ccc(Oc2nc(C#CC(C)(C)O)nc(Oc3ccc(OC)cc3)n2)cc1`, the TGI in assay [1] turned out to be 3.47 µM; in [2], 82.7 µM; in assay [3], 46.8 µM; in assay [4] it was 3.79 µM; in assay [5], 3.15 µM; in assay [7], 25.5 µM. For the same compound, the TGI in [9] was 4.36 µM; in [10] it was 21.8 µM; in [11], 22.8 µM.
`Cc1ccc(C(=O)Nc2ccc(S(=O)(=O)O)c3cc(S(=O)(=O)O)cc(S(=O)(=O)O)c23)cc1NC(=O)c1cccc(NC(=O)Nc2cccc(C(=O)Nc3cc(C(=O)Nc4ccc(S(=O)(=O)O)c5cc(S(=O)(=O)O)cc(S(=O)(=O)O)c45)ccc3C)c2)c1` (tested in a mixture with another compound): the TGI in assay [1], in [2], in assay [3], in [4], in [5] and in assay [6] was over 50 µM each time. Moreover, the TGI in [8], in [9], in [10] and in assay [11] was over 50 µM in each case.
With `COc1ccc2cc(C(=O)NCCCNC(=O)c3ccc4cc(OC)ccc4c3)ccc2c1`, the TGI in [1] was over 100 µM; in [2] it was over 100 µM; in [3], over 100 µM; in [4], over 100 µM; in assay [5] it was over 100 µM; in assay [6] it was 57.5 µM. Also, the TGI in [7], in assay [8], in assay [9], in assay [10] and in assay [11] was over 100 µM each time.
In the case of `CCCCCCCCCCCCCCCCCCOCC(COP(=O)([O-])OCC[N+](C)(C)C)OC` (stereo not given), the TGI was 47.9 µM in assay [1]; over 100 µM in assay [2]; 64.1 µM in assay [3]; over 60.1 µM in assay [4]; over 54.3 µM in assay [5]; over 71.7 µM in [6]. In addition, the TGI in [7] was 41.5 µM; in assay [8], 29.3 µM; in assay [9], 28 µM; in assay [10], 61.6 µM; in [11] it was 54.9 µM.
On to `C#CC(O)/C=C/C(O)CCCC(O)CC#CC(O)C#CC(O)CCCC(O)/C=C/CCCC(=O)CCCCCCCCCCCCCCCC(O)C(O)C#CC(=O)O` (stereo not given), for which the TGI in [2], in [3], in [4], in assay [5], in [6] and in assay [7] was over 50 µM each time. Besides, the TGI in assay [8] is over 50 µM; in [9], 36.3 µM; in [10], over 50 µM; in assay [11], over 50 µM.
As for `O=C1c2ccccc2-c2nc(/C=C/c3ccccc3)cc3c2c1nc1ccccc13`, the TGI in assay [1] is 85.6 µM; in [2], 62.6 µM; in assay [3], over 100 µM; in assay [4] it was 50.6 µM; in [5], over 100 µM; in assay [6], over 100 µM. Moreover, the TGI in [7] was over 100 µM; in assay [8] it was over 100 µM; in [9] it was over 100 µM; in assay [10], 28.9 µM; in assay [11], over 100 µM.
As to `O=c1cc(N=Nc2ccc(Cl)cc2)[nH]c(=O)[nH]1`, the TGI in [1] worked out at 5.65 µM; in assay [2] it was 12.7 µM; in [3], 12.5 µM; in [4], 2.67 µM; in assay [5], 22.8 µM; in [6], 3.21 µM. In addition, the TGI in [7] was 13.5 µM; in assay [8] it was 7.5 µM; in assay [9] it was 4.94 µM; in [10], 14.1 µM; in [11] it was 21.5 µM.
On to `Nn1c(Cc2ccccc2)n[nH]c1=O`, for which the TGI in assay [1], in assay [2], in assay [3], in assay [4], in [5] and in [6] was over 100 µM each time. Besides, the TGI in assay [7], in assay [8], in assay [9], in assay [10] and in assay [11] was over 100 µM throughout.
In the case of `CCN(CC)C(=O)N1CN(c2ccccc2)C2(CCN(CCCSc3ccc(F)cc3)CC2)C1=O`, the TGI is 43 µM in assay [1]; 16.6 µM in assay [2]; 83.4 µM in assay [3]; 18 µM in assay [4]; over 100 µM in assay [5]; 25.4 µM in assay [6]. Further, the TGI in [7] was 31.5 µM; in [8], 12.5 µM; in assay [9], over 100 µM; in assay [10] it was 22.4 µM; in assay [11] it was 21 µM.
On to `C=CCCCCCCCCCOC1C=CC(OC(C)=O)C(COC(C)=O)O1` (stereo not given), for which the TGI was over 100 µM in [1]; 63 µM in assay [2]; over 100 µM in assay [3]; over 100 µM in assay [4]; over 100 µM in assay [5]; over 100 µM in assay [6]. Moreover, the TGI in assay [7] is over 100 µM; in assay [8], 86 µM; in assay [9] it was over 100 µM; in [10], over 100 µM; in assay [11] it was over 100 µM.
On to `Cc1cc2nc(N3C(=O)/C(=C/c4ccc(Cl)cc4)N=C3c3ccccc3)sc2cc1C`, for which the TGI was over 100 µM in assay [1]; 74.2 µM in assay [2]; 87.3 µM in assay [3]; over 100 µM in [4]; over 100 µM in assay [5]; 92.1 µM in assay [6]. The TGI was over 100 µM in [7], over 100 µM in assay [8], 38.7 µM in assay [9] and 89.8 µM in [11].
For the compound `NC(=O)c1nnsc1NC=O`, the TGI in assay [1], in assay [2], in [3], in [4], in assay [5] and in assay [6] was over 100 µM each time. For the same compound, the TGI in [8], in [9], in assay [10] and in assay [11] was over 100 µM in each case.
As to `Cn1c(=O)c2c(nc(Nc3ccc(Cl)cc3)n3c(=O)n(-c4ccccc4)c(=O)n23)n(C)c1=O`, the TGI in [1], in [2], in assay [3], in [4], in assay [5] and in assay [6] was over 100 µM each time. For the same compound, the TGI in assay [7], in assay [8], in assay [9], in assay [10] and in assay [11] was over 100 µM each time.
As for `CCN(CC)CCCOc1cc2c(cc1OC)C(=O)N1CCC[C@H]1C=N2`, the TGI is 33.2 µM in [1]; over 100 µM in [2]; over 100 µM in [3]; over 100 µM in assay [4]; over 100 µM in assay [5]; over 100 µM in assay [6]. In addition, the TGI in assay [7] was over 100 µM; in assay [8], 50.2 µM; in [9] it was 87.5 µM; in assay [11], over 100 µM.
Take `C=C(C)[C@@H]1CCC2=C[C@H](CC(C)=CC3=CC(C)=C(O3)[C@@H]1OC)OC2=O`: the TGI in [1], in [2], in [3], in assay [4], in [5] and in assay [7] was over 100 µM each time. Further, the TGI was over 100 µM in [8], over 100 µM in [9] and 52.7 µM in assay [11].

Source of the values: PubChem BioAssay (NCI).
